The text below walks through data of ChEMBL document CHEMBL5465560, “Selectivity Literature for EUbOPEN Chemogenomic Library” (2024).

Test [1] addresses Serine/threonine-protein kinase MRCK beta (Homo sapiens) (UniProt Q9Y5S2). The test is described as follows: Selectivity interaction (Upstate Kinase Profiler service (Millipore)) EUB0000056c CDC42BPB. The following applies: at 1 µM.
The target of test [2] is Angiopoietin-1 receptor (Homo sapiens) (UniProt Q02763). The following applies: at 10 µM.
The target in test [3] is TGF-beta receptor type-2 (Homo sapiens) (UniProt P37173). Put plainly: Selectivity interaction (Ambit KINOMEscan and KiNATiv profiling in Jurkat cells) EUB0000090b TGFBR2. The format is cell-based. The following applies: at 1 µM.
Test [4] addresses Ribosomal protein S6 kinase alpha-4 (Homo sapiens) (UniProt O75676). Put plainly: Selectivity interaction (KinomeScan (DiscoverX)) EUB0000092b RPS6KA4. As to conditions: at 10 µM.
The target of test [5] is Histone-lysine N-methyltransferase KMT5B (Homo sapiens) (UniProt Q4FZB7). Put plainly: Selectivity interaction (Methyltransferase screen (Scintillation proximity assays)) EUB0000255b SUV420H1. In general terms: SPA uses beads or plates that emit light when radiolabelled molecules are held near them.
Sequence of Histone-lysine N-methyltransferase KMT5B (Homo sapiens) (Q4FZB7 whole entry, looked up): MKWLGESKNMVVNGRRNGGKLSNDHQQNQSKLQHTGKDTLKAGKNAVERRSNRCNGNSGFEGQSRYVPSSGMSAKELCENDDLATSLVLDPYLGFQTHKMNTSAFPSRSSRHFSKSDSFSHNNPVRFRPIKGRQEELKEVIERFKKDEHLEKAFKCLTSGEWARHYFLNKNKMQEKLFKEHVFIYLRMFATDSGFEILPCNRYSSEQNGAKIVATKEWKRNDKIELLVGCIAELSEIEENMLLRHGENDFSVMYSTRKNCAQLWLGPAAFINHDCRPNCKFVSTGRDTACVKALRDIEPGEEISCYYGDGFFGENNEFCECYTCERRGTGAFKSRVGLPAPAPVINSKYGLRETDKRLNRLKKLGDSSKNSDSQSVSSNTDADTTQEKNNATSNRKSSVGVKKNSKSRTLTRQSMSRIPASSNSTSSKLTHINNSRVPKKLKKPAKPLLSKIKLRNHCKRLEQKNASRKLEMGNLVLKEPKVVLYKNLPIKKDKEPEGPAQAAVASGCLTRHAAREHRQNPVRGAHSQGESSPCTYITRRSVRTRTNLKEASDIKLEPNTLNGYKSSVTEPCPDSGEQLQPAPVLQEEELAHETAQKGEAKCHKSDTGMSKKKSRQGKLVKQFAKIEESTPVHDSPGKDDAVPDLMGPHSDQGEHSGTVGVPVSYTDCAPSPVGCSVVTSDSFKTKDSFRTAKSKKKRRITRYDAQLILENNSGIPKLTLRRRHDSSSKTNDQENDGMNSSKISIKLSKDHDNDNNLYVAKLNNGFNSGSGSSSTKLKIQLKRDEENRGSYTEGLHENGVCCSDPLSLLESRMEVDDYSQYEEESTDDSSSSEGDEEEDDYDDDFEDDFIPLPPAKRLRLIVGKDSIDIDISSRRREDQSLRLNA
Test [6] addresses Mitogen-activated protein kinase 7 (Homo sapiens) (UniProt Q13164). Put plainly: Selectivity interaction (KinomeScan (DiscoverX)) EUB0001049a MAPK7. The following applies: at 1 µM.
Test [7] concerns the target Serine/threonine-protein kinase PAK 3 (Homo sapiens) (UniProt O75914). The test is described as follows: Selectivity interaction (KinomeScan (DiscoverX)) EUB0001049a PAK3. As to conditions: at 1 µM.
In test [8] the target is T1, Dual serine/threonine and tyrosine protein kinase (Homo sapiens) (UniProt Q6XUX3).
T1 sequence (whole entry): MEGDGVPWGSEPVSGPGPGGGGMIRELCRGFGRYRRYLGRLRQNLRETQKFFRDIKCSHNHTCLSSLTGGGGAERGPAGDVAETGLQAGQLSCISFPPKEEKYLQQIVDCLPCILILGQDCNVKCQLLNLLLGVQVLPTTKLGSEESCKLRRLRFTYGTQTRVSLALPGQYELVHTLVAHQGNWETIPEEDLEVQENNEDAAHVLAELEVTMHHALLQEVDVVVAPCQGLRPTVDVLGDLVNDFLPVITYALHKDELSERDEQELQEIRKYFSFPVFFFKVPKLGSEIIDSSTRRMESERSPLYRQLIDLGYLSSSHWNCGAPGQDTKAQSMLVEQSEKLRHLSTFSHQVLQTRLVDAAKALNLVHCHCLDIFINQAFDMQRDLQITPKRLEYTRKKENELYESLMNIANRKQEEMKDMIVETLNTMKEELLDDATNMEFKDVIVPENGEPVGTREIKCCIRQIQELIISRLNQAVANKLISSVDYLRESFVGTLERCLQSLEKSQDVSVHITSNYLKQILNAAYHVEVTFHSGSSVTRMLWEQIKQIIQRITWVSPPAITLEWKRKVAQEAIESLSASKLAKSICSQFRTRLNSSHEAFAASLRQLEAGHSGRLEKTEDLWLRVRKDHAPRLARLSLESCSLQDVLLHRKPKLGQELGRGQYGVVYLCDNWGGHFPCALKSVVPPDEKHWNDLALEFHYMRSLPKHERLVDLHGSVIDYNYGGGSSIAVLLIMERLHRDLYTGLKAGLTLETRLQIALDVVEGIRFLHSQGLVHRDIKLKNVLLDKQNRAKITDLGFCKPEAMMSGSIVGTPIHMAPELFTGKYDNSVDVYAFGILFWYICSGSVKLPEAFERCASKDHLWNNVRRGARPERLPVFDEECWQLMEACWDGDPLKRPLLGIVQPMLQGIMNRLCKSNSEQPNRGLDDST
Put plainly: Selectivity interaction (KinomeScan (DiscoverX)) EUB0001550a DSTYK. The following applies: at 1 µM.

Test [9] deals with 5-hydroxytryptamine receptor 2A (Homo sapiens, UniProt P28223). The test is described as follows: Selectivity interaction (Panel of non-epigenetic targets (kinases, GPCRs, ion channels, and transporters, Eurofins) ) EUB0000271b HTR2A. The following applies: at 1 µM.
Sequence of 5-hydroxytryptamine receptor 2A (P28223 whole entry): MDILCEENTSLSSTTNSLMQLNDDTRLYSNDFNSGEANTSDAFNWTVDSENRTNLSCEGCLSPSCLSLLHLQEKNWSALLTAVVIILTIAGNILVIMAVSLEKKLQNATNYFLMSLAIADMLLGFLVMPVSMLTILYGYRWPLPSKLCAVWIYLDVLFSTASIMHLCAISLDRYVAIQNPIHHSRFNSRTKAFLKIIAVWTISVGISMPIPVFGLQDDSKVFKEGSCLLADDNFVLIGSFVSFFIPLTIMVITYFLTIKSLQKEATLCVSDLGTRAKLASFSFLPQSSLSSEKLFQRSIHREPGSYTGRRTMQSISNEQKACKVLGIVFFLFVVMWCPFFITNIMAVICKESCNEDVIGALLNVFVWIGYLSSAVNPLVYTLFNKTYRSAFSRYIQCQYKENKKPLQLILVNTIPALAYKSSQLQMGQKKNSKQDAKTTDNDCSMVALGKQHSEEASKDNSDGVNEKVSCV
Test [10] deals with Protein arginine N-methyltransferase 6 (Homo sapiens, UniProt Q96LA8). Put plainly: Selectivity interaction (Methyltransferase screen (radiometric assays, panel of 8 PRMTs, 21 protein lysine methyltransferases, 3 DNA methyltransferases, and one RNA methyltransferase)) EUB0000271b PRMT6.
Sequence of Protein arginine N-methyltransferase 6 (Q96LA8 whole entry, looked up): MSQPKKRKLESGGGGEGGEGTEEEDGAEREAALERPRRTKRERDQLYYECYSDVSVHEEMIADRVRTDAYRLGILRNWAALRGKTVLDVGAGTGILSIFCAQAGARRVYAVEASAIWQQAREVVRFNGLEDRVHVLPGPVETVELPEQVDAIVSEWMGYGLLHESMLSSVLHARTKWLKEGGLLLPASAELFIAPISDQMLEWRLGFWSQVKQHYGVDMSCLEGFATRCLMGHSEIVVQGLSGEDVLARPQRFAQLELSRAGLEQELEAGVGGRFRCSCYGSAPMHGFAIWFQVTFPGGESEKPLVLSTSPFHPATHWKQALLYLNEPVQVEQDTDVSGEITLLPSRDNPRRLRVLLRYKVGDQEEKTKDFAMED
The target in test [11] is Serine/threonine-protein kinase SIK3 (Homo sapiens) (UniProt Q9Y2K2). The test is described as follows: Selectivity interaction (KinomeScan (DiscoverX)) EUB0000666a SIK3. As to conditions: at 10 µM.
Test [12] deals with Tyrosine-protein kinase BTK (Homo sapiens, UniProt Q06187). The test is described as follows: Selectivity interaction (ActivX KiNativ screen (kinase selectivity in THP-1 cell lysates)) EUB0000639a BTK. The test is classed as subcellular. The following applies: lysate, at 0.01 µM.
Sequence of Tyrosine-protein kinase BTK (Q06187 whole entry): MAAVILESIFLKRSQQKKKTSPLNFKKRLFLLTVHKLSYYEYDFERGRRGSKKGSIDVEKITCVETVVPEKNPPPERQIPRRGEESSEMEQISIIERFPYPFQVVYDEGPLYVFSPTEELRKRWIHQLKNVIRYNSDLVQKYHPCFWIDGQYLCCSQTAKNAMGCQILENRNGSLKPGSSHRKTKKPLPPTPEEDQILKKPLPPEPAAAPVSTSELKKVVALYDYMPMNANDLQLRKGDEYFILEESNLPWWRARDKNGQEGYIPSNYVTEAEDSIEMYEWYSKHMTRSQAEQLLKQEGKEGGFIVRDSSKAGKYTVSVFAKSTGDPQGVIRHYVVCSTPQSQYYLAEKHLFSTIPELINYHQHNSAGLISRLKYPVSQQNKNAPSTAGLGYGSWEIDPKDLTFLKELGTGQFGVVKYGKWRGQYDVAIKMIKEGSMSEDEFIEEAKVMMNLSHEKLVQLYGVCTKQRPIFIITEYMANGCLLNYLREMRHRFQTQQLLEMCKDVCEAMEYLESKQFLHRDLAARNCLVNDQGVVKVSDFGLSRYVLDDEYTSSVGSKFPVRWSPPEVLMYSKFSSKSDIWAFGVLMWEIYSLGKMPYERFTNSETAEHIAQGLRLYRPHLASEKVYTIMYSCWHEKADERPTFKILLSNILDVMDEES
In test [13] the target is Dual specificity mitogen-activated protein kinase kinase 2 (Homo sapiens) (UniProt P36507). Put plainly: Selectivity interaction (ActivX KiNativ screen (kinase selectivity in THP-1 cell lysates)) EUB0000639a MAP2K2. The test is classed as subcellular. The following applies: lysate, at 1 µM.
Test [14] deals with Tyrosine-protein kinase JAK1 (Homo sapiens, UniProt P23458). Put plainly: Selectivity interaction (KinomeScan (DiscoverX)) EUB0000229b JAK1. The following applies: at 10 µM.
Test [15] has as its target Bromodomain adjacent to zinc finger domain protein 2B (Homo sapiens) (UniProt Q9UIF8). The test is described as follows: Selectivity interaction (Human bromodomain panel (DSF assay)) EUB0000233b BAZ2B. Background: Differential scanning fluorimetry follows unfolding on heating by fluorescence.
Test [16] deals with Transcription initiation factor TFIID subunit 1 (Homo sapiens) (UniProt P21675). The test is described as follows: Selectivity interaction (Human bromodomain panel (DSF assay)) EUB0000233b TAF1.
Test [17] addresses Insulin-like growth factor 1 receptor (Homo sapiens, UniProt P08069). The test is described as follows: Selectivity interaction (KinomeScan (DiscoverX)) EUB0001619a IGF1R. The following applies: at 1 µM.
The target in test [18] is Tyrosine-protein kinase Yes (Homo sapiens) (UniProt P07947). The test is described as follows: Selectivity interaction (ActivX KiNativ screen (ex vivo kinase selectivity in human PBMCs)) EUB0001619a YES1. The test is classed as cell-based. As to conditions: PBMC, at 1 µM.
Test [19] deals with Bone morphogenetic protein receptor type-1B (Homo sapiens, UniProt O00238). Put plainly: Selectivity interaction (KinomeScan (DiscoverX)) EUB0000618a BMPR1B. The following applies: at 10 µM.
Sequence of Bone morphogenetic protein receptor type-1B (O00238 whole entry): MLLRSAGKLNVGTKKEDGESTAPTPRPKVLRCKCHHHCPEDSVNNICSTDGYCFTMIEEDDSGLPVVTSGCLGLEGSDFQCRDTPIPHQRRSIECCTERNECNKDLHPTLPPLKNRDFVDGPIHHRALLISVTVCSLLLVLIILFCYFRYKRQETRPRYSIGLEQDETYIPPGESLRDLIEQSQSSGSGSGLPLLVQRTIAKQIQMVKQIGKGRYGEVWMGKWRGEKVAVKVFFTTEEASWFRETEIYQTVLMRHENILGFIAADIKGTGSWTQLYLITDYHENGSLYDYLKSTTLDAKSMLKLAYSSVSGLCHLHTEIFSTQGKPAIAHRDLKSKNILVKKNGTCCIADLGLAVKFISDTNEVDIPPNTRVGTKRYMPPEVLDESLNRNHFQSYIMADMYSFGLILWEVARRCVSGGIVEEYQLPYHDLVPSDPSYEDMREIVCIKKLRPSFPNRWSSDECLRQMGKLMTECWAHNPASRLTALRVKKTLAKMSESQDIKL
Test [20] addresses Dual specificity tyrosine-phosphorylation-regulated kinase 1A (Homo sapiens, UniProt Q13627). The test is described as follows: Selectivity interaction (KinomeScan (DiscoverX)) EUB0000618a DYRK1A. The following applies: at 10 µM.
Test [21] addresses Serine/threonine-protein kinase PLK3 (Homo sapiens, UniProt Q9H4B4). The test is described as follows: Selectivity interaction (KinomeScan (DiscoverX)) EUB0000618a PLK3. As to conditions: at 10 µM.

Sequence of Insulin-like growth factor 1 receptor (P08069 31-736 limits assumed): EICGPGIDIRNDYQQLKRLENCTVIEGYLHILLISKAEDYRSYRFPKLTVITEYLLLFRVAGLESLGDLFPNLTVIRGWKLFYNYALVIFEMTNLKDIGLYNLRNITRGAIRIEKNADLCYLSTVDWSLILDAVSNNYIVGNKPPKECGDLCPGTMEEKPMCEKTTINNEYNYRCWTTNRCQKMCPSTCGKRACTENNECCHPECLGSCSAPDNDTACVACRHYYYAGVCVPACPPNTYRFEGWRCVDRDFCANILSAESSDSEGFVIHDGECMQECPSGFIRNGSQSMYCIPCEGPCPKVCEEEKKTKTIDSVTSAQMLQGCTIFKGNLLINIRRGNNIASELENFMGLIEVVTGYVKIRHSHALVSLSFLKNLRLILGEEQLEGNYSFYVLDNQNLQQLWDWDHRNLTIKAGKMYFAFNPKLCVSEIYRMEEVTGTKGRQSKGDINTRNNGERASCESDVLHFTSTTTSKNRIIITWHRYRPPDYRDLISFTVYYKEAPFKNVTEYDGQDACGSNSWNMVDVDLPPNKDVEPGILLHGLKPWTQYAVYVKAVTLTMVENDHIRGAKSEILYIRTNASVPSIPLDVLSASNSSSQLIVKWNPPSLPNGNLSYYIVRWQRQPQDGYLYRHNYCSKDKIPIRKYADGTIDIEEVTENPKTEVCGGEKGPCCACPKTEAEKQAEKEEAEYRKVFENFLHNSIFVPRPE
Sequence of Insulin-like growth factor 1 receptor (P08069 741-1367 limits assumed): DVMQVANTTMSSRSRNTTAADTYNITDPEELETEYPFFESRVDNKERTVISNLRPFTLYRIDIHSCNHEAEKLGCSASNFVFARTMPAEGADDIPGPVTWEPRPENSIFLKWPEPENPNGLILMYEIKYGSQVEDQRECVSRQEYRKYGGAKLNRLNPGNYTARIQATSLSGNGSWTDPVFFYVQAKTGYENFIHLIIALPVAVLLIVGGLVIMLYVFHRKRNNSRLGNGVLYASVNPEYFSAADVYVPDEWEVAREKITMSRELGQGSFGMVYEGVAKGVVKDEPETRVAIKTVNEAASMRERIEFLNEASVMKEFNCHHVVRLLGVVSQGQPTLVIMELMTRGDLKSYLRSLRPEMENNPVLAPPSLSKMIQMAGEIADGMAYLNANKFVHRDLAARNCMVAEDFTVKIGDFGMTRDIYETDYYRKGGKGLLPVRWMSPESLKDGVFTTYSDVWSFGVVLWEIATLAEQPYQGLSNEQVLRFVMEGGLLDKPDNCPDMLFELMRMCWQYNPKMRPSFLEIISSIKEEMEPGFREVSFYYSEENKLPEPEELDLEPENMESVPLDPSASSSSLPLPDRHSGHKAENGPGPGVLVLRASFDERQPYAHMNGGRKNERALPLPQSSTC
Sequence of Mitogen-activated protein kinase 7 (Homo sapiens) (Q13164 2-816 limits assumed): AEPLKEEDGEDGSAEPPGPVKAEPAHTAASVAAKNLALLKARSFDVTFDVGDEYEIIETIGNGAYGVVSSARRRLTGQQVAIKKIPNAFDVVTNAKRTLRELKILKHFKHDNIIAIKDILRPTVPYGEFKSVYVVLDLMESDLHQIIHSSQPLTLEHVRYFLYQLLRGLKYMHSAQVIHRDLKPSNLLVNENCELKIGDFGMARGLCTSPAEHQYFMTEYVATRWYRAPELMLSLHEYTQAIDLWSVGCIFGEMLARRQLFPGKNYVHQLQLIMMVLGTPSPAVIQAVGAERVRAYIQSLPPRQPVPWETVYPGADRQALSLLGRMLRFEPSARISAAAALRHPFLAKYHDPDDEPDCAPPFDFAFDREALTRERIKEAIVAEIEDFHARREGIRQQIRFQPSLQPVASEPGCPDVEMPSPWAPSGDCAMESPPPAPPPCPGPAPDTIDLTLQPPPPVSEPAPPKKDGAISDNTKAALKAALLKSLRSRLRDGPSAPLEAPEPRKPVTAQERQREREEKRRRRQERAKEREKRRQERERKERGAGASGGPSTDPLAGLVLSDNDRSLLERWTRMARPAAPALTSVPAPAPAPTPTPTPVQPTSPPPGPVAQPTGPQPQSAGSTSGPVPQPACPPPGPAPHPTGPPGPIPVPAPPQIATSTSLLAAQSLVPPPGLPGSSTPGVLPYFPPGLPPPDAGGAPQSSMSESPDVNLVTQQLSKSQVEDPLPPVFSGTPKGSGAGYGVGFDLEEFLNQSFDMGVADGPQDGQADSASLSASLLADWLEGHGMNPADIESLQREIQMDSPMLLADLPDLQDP

On to `Cc1ccc(-c2ccc3c(ccc4sc5c(c43)NC[C@@H](C)NC5=O)n2)cn1`, for which the % of inhibition in test [1] came to 4%.

Regarding `Cc1cc([C@@H](C)Nc2ccccc2C(=O)O)c2nc(N3CCOCC3)cc(=O)n2c1` [AZD-6482], the % of control in [2] was 100%.

Consider `CN(C)C/C=C/C(=O)Nc1ccc(C(=O)N2CCCC(Nc3ncc(Cl)c(-c4c[nH]c5ccccc45)n3)C2)cc1` (stereo not drawn), for which the % of control in test [3] came to 87%.

In the case of `CCC(=O)N1CCN(c2ccc(-n3c(=O)ccc4cnc5ccc(-c6cnc7ccccc7c6)cc5c43)cc2C(F)(F)F)CC1`, the % of control in [4] turned out to be 100%.

Take `COCCN1CCC(c2cc(CN(C)C(=O)c3cccc(Oc4ccccc4)c3)ccn2)CC1`: the % activity in test [5] (at 1 µM) was more than 95%; in [5] (at 10 µM), more than 90%.

Regarding `COc1cc(Nc2nc(C)cc(-c3cnn4nc(OC)ccc34)n2)cc(C(F)(F)F)c1`, the % of control is 83% in test [6] and 85% in [7].

In test [8], `CN(C)CC#Cc1ccc2[nH]c3c(c2c1)-c1nc(N)ncc1CCC3` displayed a % of control of 5.2%.

On to `Cc1cc(C)cc([C@@H]2c3cc(C)ccc3NC(=O)CN2C(=O)c2ccc(Br)s2)c1`, for which the % of inhibition in test [9] turned out to be 12%. Moreover, the % of activity in test [10] (at 1 µM) came out at 16.7%; in test [10] (at 10 µM) it was 7.33%.

`O=C(NOC[C@H](O)CO)c1ccc(F)c(F)c1Nc1ccc(I)cc1F` gave a % of control in test [11] of 52%.

Turning to `CC[C@@H]1[C@H](F)C(=O)N[C@@H]1COc1nccc2cc(C(N)=O)c(OC)cc12` [ZIMLOVISERTIB], the % of inhibition in [12] was -4.4%; in test [13], -10.2%.

`COc1cc(N(C)c2ccnc3ccc(C(F)(F)F)cc23)cc(OC)c1OC` gave a % binding in [14] of 82%.

`CN(C)CCCOc1ccc(-c2cc(NCCCn3cccn3)nc(S(C)(=O)=O)n2)cc1`: the dTM in test [15] and in [16] was less than 2 K each time.

The compound `N#Cc1cccc(-c2c[nH]c3ncnc(N4CCOCC4)c23)c1` showed a % of control in [17] of 87%. Moreover, the % of inhibition in test [18] is -9%.

For the compound `O[C@H]1CC[C@H](Nc2ncc3nc(Nc4c(F)cc(F)cc4F)n([C@H]4CCOC4)c3n2)CC1`, the results for the % of control in test [19], in test [20] and in test [21] were 100%, 98% and 100%, respectively.
